Source: patent EP0604800A1, “4- 4- 4-(carboxyalkyl)-phenyl amino carbonyl -phenyl -piperedines as aggregation inhibitors” (Dr. Karl Thomae GmbH, priority 1992, dated 1994)
Counter-ions that a name gives are not always drawn.

How the values were obtained:
[1] = tested on: Collagen-induzierte Thrombozytenaggregation; experiment: Ex vivo inhibition of collagen-induced platelet aggregation after oral administration; format: in vivo, Rhesusaffen; conditions: 1 mg/kg, Rhesus monkeys, collagen 2 µg/ml
From the text: Die Hemmung der Thrombozytenaggregation nach oraler Gabe der Prüfsubstanz wird ex vivo an Rhesusaffen ermittelt.
Direkt vor der oralen Verabreichung der in Natrosol suspendierten Prüfsubstanz wird den Tieren eine Blutprobe aus der Kubitalvene als Referenzwert entnommen. Zu definierten Zeiten nach der Substanzgabe werden erneut Blutproben gewonnen und wie folgt untersucht.
Das mit 3,14% Natriumcitrat im Volumenverhältnis 1:10 versetzte Vollblut wird mit 200 g für 15 Minuten zentrifugiert. Der Überstand an plättchenreichem Plasma wird vorsichtig abgehoben. Aus dem erythrozytenreichen Sediment wird durch Zentrifugation mit 4000 g für 10 Minuten das plättchenarme Plasma als Überstand gewonnen.
Die mit Collagen (Hormonchemie, München; 2 µg/ml Endkonzentration im plättchenreichen Plasma) ausgelöste Thrombozytenaggregation in diesen ex vivo Proben wird nach der Methode von Born und Cross (J. Physiol. 170, 397 (1964)) photometrisch gemessen. Die nach Collagenstimulation gemessene größte Lichtdurchlässigkeit des plättchenreichen Plasmas wird mit dem Referenzwert verglichen, um die Hemmung der Aggregation zu den verschiedenen Zeitpunkten der Blutentnahme nach Substanzgabe relativ zum Referenzwert zu bestimmen.

[2] = tested on: Thrombozytenaggregation; experiment: Collagen-induced platelet aggregation in platelet-rich plasma (Born and Cross); format: cell-based, Versuchspersonen; conditions: 10 min preincubation at 37°C, half-maximal inhibition of change in optical density, read-out: Hemmung der Plättchenaggregation EC₅₀ (converted)
From the text: 2. Antithrombotische Wirkung Methodik Die Thrombozytenaggregation wird nach der Methode von Born und Cross (J. Physiol. 170, 397 (1964)) in plättchenreichem Plasma gesunder Versuchspersonen gemessen. Zur Gerinnungshemmung wird das Blut mit Natriumcitrat 3,14 % im Volumenverhältnis 1:10 versetzt. Collagen-induzierte Aggregation Der Verlauf der Abnahme der optischen Dichte der Plättchen-Suspension wird nach Zugabe der aggregationsauslösenden Substanz photometrisch gemessen und registriert. Aus dem Neigungswinkel der Dichtekurve wird auf die Aggregationsgeschwindigkeit geschlossen. Der Punkt der Kurve, bei dem die größte Lichtdurchlässigkeit vorliegt, dient zur Berechnung der "optical density". Die Collagen-Konzentration wird möglichst gering gewählt, aber doch so, daß sich eine irreversibel verlaufende Reaktionskurve ergibt. Verwendet wird das handelsübliche Collagen der Firma Hormonchemie, München. Vor der Collagen-Zugabe wird das Plasma jeweils 10 Minuten mit der Substanz bei 37°C inkubiert. Aus den Konzentrations-Wirkungskurven wird die EC₅₀ berechnet, die die Konzentration beschreibt, bei der die Änderung der "optical density" halbmaximal gehemmt ist.

[3] = tested on: Humanthrombozyten; experiment: Competitive binding of ³H-BIBU 52 / test substance to human platelets; conditions: platelet suspension in plasma, ³H-BIBU 52 5 nM, 20 min at room temperature; read-out: Kompetitive Bindung ³H-BIBU 52/Textsubstanz an Humanthrombozyten IC₅₀ (converted)
From the text: 1. Kompetitive Bindung ³H-BIBU 52/Testsubstanz an Humanthrombozyten:
Eine Suspension von Humanthrombozyten in Plasma wird mit ³H-BIBU 52 [= (3S,5S)-5-[(4'-Amidino-4-biphenylyl)oxymethyl]-3-[(carboxyl)methyl]-2-pyrrolidinon[3-³H-4-biphenylyl]), das den literaturbekannten Liganden ¹²⁵ I-Fibrinogen ersetzt, (siehe deutsche Patentanmeldung P 42 14 245.8 der gleichen Anmelderin vom 30. 04. 1992, internes Zeichen: Case 5/1093-FL) und verschiedenen Konzentrationen der zu testenden Substanz inkubiert. Der freie und gebundene Ligand wird durch Zentrifugation getrennt und durch Szintillationszählung quantitativ bestimmt. Aus den Meßwerten wird die Hemmung der ³H-BIBU 52-Bindung durch die Testsubstanz bestimmt.
Hierzu wird aus einer Antikubitalvene Spenderblut entnommen und mit Trinatriumzitrat antikoaguliert (Endkonzentration 13 mM). Das Blut wird 10 Minuten bei 170 x g zentrifugiert und das überstehende plättchenreiche Plasma (PRP) abgenommen. Das Restblut wird zur Gewinnung von Plasma nocheinmal scharf abzentrifugiert. Das PRP wird mit autologem Plasma 1:10 verdünnt. 750 µl werden mit 50 µl physiologischer Kochsalzlösung, 100 µl Testsubstanzlösung, 50 µl ¹⁴C-Sucrose (3.700 Bq) und 50 µl ³H-BIBU 52 (Endkonzentration: 5 nM) bei Raumtemperatur 20 Minuten inkubiert. Zur Messung der unspezifischen Bindung wird anstelle der Testsubstanz 5 µl BIBU 52 (Endkonzentration: 30 µM) eingesetzt. Die Proben werden 20 Sekunden bei 10000 x g zentrifugiert und der Überstand abgezogen. 100 µl hiervon werden zur Bestimmung des freien Liganden gemessen. Das Pellet wird in 500 µl 0,2N NaOH gelöst, 450 µl werden mit 2 ml Szintillator und 25 µl 5N HCl versetzt und gemessen. Das im Pellet noch verbliebene Restplasma wird aus dem ¹⁴C-Gehalt bestimmt, der gebundene Ligand aus der ³H-Messung. Nach Abzug der unspezifischen Bindung wird die Pelletaktivität gegen die Konzentration der Testsubstanz aufgetragen und die Konzentration für eine 50%ige Hemmung der Bindung ermittelt.

[4] = Tolerability after intravenous administration to mice; format: in vivo, Mäusen; conditions: 30 mg/kg, 3 mice each

| Structure (SMILES) | Dauer der Hemmung der Collagen-induzierten Thrombozytenaggregation ex vivo [1] | EC50 [2] | IC50 [3] | gestorbene Tiere [4] |
| --- | --- | --- | --- | --- |
| CCCCS(=O)(=O)NC(Cc1ccc(NC(=O)c2cccc(C3CCNCC3)c2)cc1)C(=O)OC.Cl (stereo not shown) [5(2), 4-[3-[[4-[2-(n-Butansulfonylamino)-2-(methoxycarbonyl)-ethyl]-phenyl]-aminocarbonyl]-phenyl]-piperidin-hydrochlorid] | > 2 Stunden | – | – | – |
| CCCCS(=O)(=O)NC(Cc1ccc(NC(=O)c2ccc(C3CCNCC3)cc2)cc1)C(=O)OC (stereo not shown) [Beispiel 2.2, 4-[4-[[4-[2-(n-Butansulfonylamino)-2-(methoxycarbonyl)-ethyl]-phenyl]-aminocarbonyl]-phenyl]-piperidin-hydrochlorid] | – | 3300 nM | 4500 nM | – |
| CCCCS(=O)(=O)NC(Cc1ccc(NC(=O)c2cccc(C3CCNCC3)c2)cc1)C(=O)O (stereo not shown) [Beispiel 3.6, 4-[3-[[4-[2-(n-Butansulfonylamino)-2-carboxy-ethyl]-phenyl]-aminocarbonyl]-phenyl]-piperidin-hydrochlorid] | – | 120 nM | 14 nM | – |
| COC(=O)CC[C@H]1CC[C@H](NC(=O)c2cccc(C3CCNCC3)c2)CC1 [Beispiel 5, 4-[3-[[trans-4-[2-(Methoxycarbonyl)-ethyl]-cyclohexyl]-aminocarbonyl]-phenyl]-piperidin-hydrochlorid] | – | 5600 nM | 2900 nM | – |
| COC(=O)CCc1ccc(NC(=O)c2ccc(C3CCNCC3)cc2)cc1 [Beispiel 2.1, 4-[4-[[4-[2-(Methoxycarbonyl)-ethyl]-phenyl]-aminocarbonyl]-phenyl]-piperidin-hydrochlorid] | – | 3300 nM | > 100000 nM | – |
| CCCCS(=O)(=O)NC(Cc1ccc(NC(=O)c2ccc(C3CCNCC3)cc2)cc1)C(=O)O (stereo not shown) [Beispiel 3.3, 4-[4-[[4-[2-(n-Butansulfonyl-amino)-2-carboxy-ethyl]-phenyl]-aminocarbonyl]-phenyl]-piperidin-hydrochlorid] | – | 260 nM | 17 nM | – |
| O=C(O)CCc1ccc(NC(=O)c2ccc(C3CCNCC3)cc2)cc1 [Beispiel 3.1, 4-[4-[[4-(2-Carboxy-ethyl)-phenyl]-aminocarbonyl]-phenyl]-piperidin-hydrochlorid] | – | 2400 nM | 1400 nM | – |
| COC(=O)CC[C@H]1CC[C@H](NC(=O)c2ccc(C3CCNCC3)cc2)CC1.Cl [Beispiel 2, 4-[4-[[trans-4-[2-(Methoxycarbonyl)-ethyl]-cyclohexyl]-aminocarbonyl]-phenyl]-piperidin-hydrochlorid] | > 2 Stunden | 840 nM | 1100 nM | keine Tieren gestorben |
| O=C(O)CC[C@H]1CC[C@H](NC(=O)c2cccc(C3CCNCC3)c2)CC1 [Beispiel 3.4, 4-[3-[[trans-4-(2-Carboxy-ethyl)-cyclohexyl]-aminocarbonyl]-phenyl]-piperidin-hydrochlorid] | – | 5800 nM | 2000 nM | – |
| Cl.O=C(O)CC[C@H]1CC[C@H](NC(=O)c2ccc(C3CCNCC3)cc2)CC1 [Beispiel 3, 4-[4-[[trans-4-(2-Carboxy-ethyl)-cyclohexyl]-aminocarbonyl]-phenyl]-piperidin-hydrochlorid] | – | 260 nM | 190 nM | keine Tieren gestorben |
